pIC50: −log10 of the molar value. Read-outs that look alike come from different tables or passages of the source.

Our source for the IC50 values is US11117901B2, “Substituted pyrazolo[4,3-h]quinazolines as choline kinase inhibitors” (NERVIANO MEDICAL SCIENCES S.R.L., priority 2017, dated 2021).

In one assay the target is T1, Δ49N-hChoKα (Homo sapiens, UniProt P35790).
T1 construct: cDNA fragment 362-1534, corresponding to aminoacids 50 457; GST (N, cleaved yes); PreScission Protease recognition site (N); made in house; host or cells: Escherichia coli BL21pLysS (DE3)
The assay can be described thus: Biochemical kinase inhibition assay (Kinase-Glo luminescent) on Δ49N-hChoKα. The conditions noted are these: ATP 5 μM, choline 5 μM, 60 min rt. The procedure:
(§1) HumanΔ49ChoKα ([…]Δ49N-hChoKα) cDNA fragment 362-1534, corresponding to aminoacids 50 457 (J. Mol. Biol. 2006, 364, 136-151), and hChoKβ full length (FL), corresponding to aminoacids 2-395 ((PLoS ONE 2009, 4, e7819), were amplified by PCR from human library and cloned, inserting upstream a Prescission Protease recognition site, in pDonor 221 vector, using the Gateway Technology® (Invitrogen). After sequence control, LR reaction was performed in the final expression pGEX 2Tg vector. Both the proteins were expressed in Escherichia coli BL21pLysS (DE3) strain in auto-induction (Kessler) medium in the presence of […] carbenicillin at 25° C. for 16 h. Cells were harvested by centrifugation, the pellet was re-suspended in Lysis buffer (50 mM Tris-HCl pH 7.8, 150 mM NaCl, 10% glycerol, 0.2% CHAPS, 20 mM DTT, Protease Inhibitor Cocktail Tablets from Roche Biochemicals) and lysed by Gaulin homogenizer (Niro Soavi). The lysate was cleared by centrifugation. The supernatant was added to GSH resin and let flow by gravity. The GSH resin was washed with 5 column volume (CV) of cold wash buffer (50 mM Tris-HCl pH 7.8, 150 mM NaCl, 10% glycerol), then with 10 CV of the same buffer containing 2 mM of DTT. Both GST-Δ49N-hChoKα and hChoKβ were subjected to on-column cleavage of the GST tag with Prescission Protease overnight. The eluted cleaved proteins were further purified by ion exchange (ResQ 6 mL chromatography column from GE healthcare) with a gradient from 50 to 500 mM NaCl in 30 CV. The fractions containing […]Δ49N-hChoKα or hChoKβ were pooled, concentrated and gel filtered on a Superdex200 16/60 (GE Healthcare). The final protein concentration was estimated using the Bradford assay. All the samples purified were resolved by SDS-PAGE.
(§2) Biochemical Kinase inhibition Assay on Δ49N-hChoKα and hChoKβFL
(§3) The biochemical activity of compounds against Δ49N-ChoKα and ChoK3 FL were determined using the Kinase-Glo™ Luminescent Kinase Assay (Promega cat. V6711). The assay is based on incubation of the recombinant Δ49N-hChoKα and hChoKβ FL produced in house, 2.2 nM and 30 nM, respectively, with the specific substrates, choline (Sigma-Aldrich-C7017) and ATP, followed by quantification, at the end of reaction time, of the residual not reacted ATP.
(§4) Compounds were 3-fold serially diluted from 10 to 0.0005 μM, then incubated for 60 minutes at room temperature in the presence of ATP 5 μM, choline (5 μM for ChoKα and 20 μM for ChoKβ) and enzyme in a final volume of 19 μL of kinase buffer (50 mM Hepes pH 7.5, 10 mM MgCl2, 1 mM DTT, 3 μM Na3VO4 and 0.2 mg/mL BSA). The final concentration of DMSO was 1%. The assay was run in a robotized format on 384-well plates (Perkin Elmer cat. #6005301).
(§5) At the end of the incubation, an amount of 19 μL of KinaseGlo Reagent was added to each well to stop the reaction and after 30 minutes the luminescence signal was measured using ViewLux reader (Perkin Elmer).
(§6) All information about plate dilution, distribution and raw data of inhibition are tracked via barcode reading and stored in an Oracle DB. The data per each molecule are analyzed by an internally customized version of the SW package “Assay Explorer” which provides sigmoidal fittings of the ten-dilution curves for IC50 determination using a 4 parameter logistic equation: y=bottom+(top−bottom)/(1+10^((log IC50−x)*slope)) where x is the logarithm of the inhibitor concentration, y is the response; y starts at bottom and goes to top with a sigmoid shape.
On the technique in general: Kinase-Glo reads ATP consumption through a luciferase reaction.

The next assay has as its target T2, hChoKβ FL (Homo sapiens, UniProt Q9Y259).
T2 construct: hChoKβ full length (FL), corresponding to aminoacids 2-395; GST (N, cleaved yes); PreScission Protease recognition site (N); made in house; host or cells: Escherichia coli BL21pLysS (DE3)
The assay can be described thus: Biochemical kinase inhibition assay (Kinase-Glo luminescent) on hChoKβ FL. The conditions noted are these: ATP 5 μM, choline 20 μM, 60 min rt. As for the experimental part:
as §1, §2, §3, §4, §5, §6

Where [1] appears, read: recombinant Δ49N-hChoKα 2.2 nM, read-out: ChoKα IC50.
Setting [2] is: recombinant hChoKβ FL 30 nM, read-out: ChoKβ IC50.

T2 sequence (Q9Y259 2-395): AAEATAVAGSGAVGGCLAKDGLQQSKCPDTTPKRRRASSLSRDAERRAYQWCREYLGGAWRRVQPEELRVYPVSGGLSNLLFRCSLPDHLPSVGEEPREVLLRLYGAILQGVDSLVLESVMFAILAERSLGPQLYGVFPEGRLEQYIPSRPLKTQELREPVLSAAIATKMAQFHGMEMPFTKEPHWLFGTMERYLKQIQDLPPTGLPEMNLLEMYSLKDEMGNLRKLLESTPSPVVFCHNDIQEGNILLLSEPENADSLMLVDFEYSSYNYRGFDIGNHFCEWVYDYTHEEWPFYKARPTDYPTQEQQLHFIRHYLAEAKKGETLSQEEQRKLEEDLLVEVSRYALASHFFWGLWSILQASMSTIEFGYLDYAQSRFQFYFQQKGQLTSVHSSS
T1 sequence (P35790 50-439 isoform P35790-2): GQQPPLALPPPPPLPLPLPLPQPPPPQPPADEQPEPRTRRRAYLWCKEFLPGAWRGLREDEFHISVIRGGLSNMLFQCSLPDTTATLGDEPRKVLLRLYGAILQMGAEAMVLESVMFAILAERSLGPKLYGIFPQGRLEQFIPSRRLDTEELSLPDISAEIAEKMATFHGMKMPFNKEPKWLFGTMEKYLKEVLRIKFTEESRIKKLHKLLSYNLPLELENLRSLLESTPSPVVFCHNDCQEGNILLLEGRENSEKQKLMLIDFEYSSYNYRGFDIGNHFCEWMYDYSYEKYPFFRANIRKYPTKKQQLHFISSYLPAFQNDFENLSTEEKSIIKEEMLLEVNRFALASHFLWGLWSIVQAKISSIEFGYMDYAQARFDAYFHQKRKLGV

For `CCOC(=O)c1ccc(NC(=O)c2n[nH]c3c2C(C)(C)Cc2cnc(N)nc2-3)cc1` [compound 5], the pIC50 is 6.32 at Δ49N-hChoKα (setting [1]) and 5.59 at hChoKβ FL (setting [2]).
The matching figures for `CC1(C)Cc2cnc(N)nc2-c2[nH]nc(C(=O)Nc3ncc(Cl)s3)c21` [compound 66]: 6.15 and 5.24.
The matching figures for `CN1CCN(c2ccc(NC(=O)c3n[nH]c4c3C(C)(C)Cc3cnc(N)nc3-4)cc2)CC1` [compound 6]: 6.13 and 6.50.
For `CC1(C)Cc2cnc(N)nc2-c2[nH]nc(C(=O)Nc3ccc(C(=O)N4CCC(N5CCOCC5)CC4)cc3)c21` [compound 50], the figures for the pIC50 on Δ49N-hChoKα (setting [1]) and at hChoKβ FL (setting [2]) were 6.67 and 6.15, respectively.
Take `CC1(C)Cc2cnc(N)nc2-c2[nH]nc(C(=O)N3CCC(N4CCCCC4)CC3)c21` [compound 38]: the pIC50 on Δ49N-hChoKα (setting [1]) is 6.17; on hChoKβ FL (setting [2]), less than 5.00.
In the case of `Cn1nc(C(=O)Nc2ccc(CN3CCC(N4CCCCC4)CC3)cc2)c2c1-c1nc(N)ncc1CC2(C)C` [compound 128], the pIC50 was 6.90 at Δ49N-hChoKα (setting [1]) and less than 5.00 at hChoKβ FL (setting [2]).
In the case of `COc1ccc2nc(NC(=O)c3n[nH]c4c3C(C)(C)Cc3cnc(N)nc3-4)sc2c1` [compound 63], the pIC50 on Δ49N-hChoKα (setting [1]) was 7.59; at hChoKβ FL (setting [2]), 6.35.
The matching figures for `CC1(C)Cc2cnc(N)nc2-c2[nH]nc(C(=O)Nc3nc(COC4CCN(C5CCCCC5)CC4)cs3)c21` [compound 157]: 8.22 and 6.53.
In the case of `CC1(C)Cc2cnc(N)nc2-c2[nH]nc(C(=O)Nc3nc(C4(C(=O)O)CC4)cs3)c21` [compound 129], the pIC50 at Δ49N-hChoKα (setting [1]) is 6.66; on hChoKβ FL (setting [2]), less than 5.00.
In the case of `Cn1nc(C(=O)Nc2nc(CN3CCC(N4CCCCC4)CC3)cs2)c2c1-c1nc(N)ncc1CC2(C)C` [compound 141], the pIC50 is 6.21 on Δ49N-hChoKα (setting [1]) and less than 5.00 on hChoKβ FL (setting [2]).
The matching figures for `CC1(C)Cc2cnc(N)nc2-c2[nH]nc(C(=O)Nc3ccc(C(=O)NC4CCCCC4)cc3)c21` [compound 16]: 7.12 and 7.20.
The matching figures for `CC(C)=CC(=O)CC(C)(C)NC(=O)Cc1csc(NC(=O)c2n[nH]c3c2C(C)(C)Cc2cnc(N)nc2-3)n1` [compound 220]: 7.52 and 5.86.
`CN1CCC(NC(=O)Cc2cnc(NC(=O)c3n[nH]c4c3C(C)(C)Cc3cnc(N)nc3-4)s2)CC1` [compound 74]: the pIC50 is 7.10 at Δ49N-hChoKα (setting [1]) and 5.87 at hChoKβ FL (setting [2]).
As for `CC1(C)Cc2cnc(N)nc2-c2[nH]nc(C(=O)Nc3ccc(C(=O)NC4CCC4)cc3)c21` [compound 30], the negative-log IC50 (pIC50) was 6.96 on Δ49N-hChoKα (setting [1]) and 6.87 at hChoKβ FL (setting [2]).
On to `CC1(C)Cc2cnc(N)nc2-c2[nH]nc(C(=O)Nc3nc(CC(=O)N4CCC(N5CCC(F)(F)CC5)CC4)cs3)c21` [compound 229], for which the pIC50 was 7.74 on Δ49N-hChoKα (setting [1]) and 6.08 on hChoKβ FL (setting [2]).
As to `CC1(C)Cc2cnc(N)nc2-c2[nH]nc(C(=O)Nc3nc(CC(=O)N4CCC(=O)CC4)cs3)c21` [compound 45], the pIC50 on Δ49N-hChoKα (ChoKα IC50, recombinant Δ49N-hChoKα 2.2 nM) is 6.92; on hChoKβ FL (ChoKβ IC50, recombinant hChoKβ FL 30 nM) it was less than 5.00.
For the molecule `CC1(C)Cc2cnc(N)nc2-c2[nH]nc(C(=O)Nc3nc4ccc(Cl)cc4s3)c21` [compound 64], the pIC50 is 6.51 on Δ49N-hChoKα (setting [1]) and 5.31 on hChoKβ FL (setting [2]).
The matching figures for `CC1(C)Cc2cnc(N)nc2-c2[nH]nc(C(=O)Nc3ncc(C(=O)O)s3)c21` [compound 82]: 6.52 and 5.76.
On the same counts, the results for `CN(C)[C@@H]1CCN(C(=O)Cc2cccc(NC(=O)c3n[nH]c4c3C(C)(C)Cc3cnc(N)nc3-4)c2)C1` [compound 142] are 6.96 and 6.17.
The matching figures for `CC1(C)Cc2cnc(N)nc2-c2[nH]nc(C(=O)NC3CCCCC3)c21` [compound 34]: 6.13 and less than 5.00.
Take `CCOC(=O)Cc1ccc(NC(=O)c2n[nH]c3c2C(C)(C)Cc2cnc(N)nc2-3)cc1` [compound 96]: the pIC50 on Δ49N-hChoKα (setting [1]) is 6.70; at hChoKβ FL (setting [2]), 6.03.
The matching figures for `CC1(C)Cc2cnc(N)nc2-c2[nH]nc(C(=O)Nc3ccc(C(=O)N[C@H]4CC[C@H](O)CC4)cc3)c21` [compound 28]: 6.29 and 5.51.
For the molecule `CC1(C)CCN(C2CCN(C(=O)Cc3csc(NC(=O)c4n[nH]c5c4C(C)(C)Cc4cnc(N)nc4-5)n3)CC2)CC1` [compound 218], the pIC50 at Δ49N-hChoKα (setting [1]) is 8.70; at hChoKβ FL (setting [2]), 6.60.
On the same counts, the results for `CC1(C)Cc2cnc(N)nc2-c2[nH]nc(C(=O)Nc3nc(C(=O)O)cs3)c21` [compound 67] are 7.09 and 6.15.
Consider `CC1CCN(C2CCN(C(=O)Cc3csc(N(C)C(=O)c4n[nH]c5c4C(C)(C)Cc4cnc(N)nc4-5)n3)CC2)CC1` [compound 123], for which the results for the pIC50 on Δ49N-hChoKα (setting [1]) and on hChoKβ FL (setting [2]) were 7.28 and less than 5.00, respectively.
With `CC1(C)Cc2cnc(N)nc2-c2[nH]nc(C(=O)Nc3ccc(C(=O)NC4CCCC4)cc3)c21` [compound 29], the values for the negative-log IC50 (pIC50) at Δ49N-hChoKα (setting [1]) and at hChoKβ FL (setting [2]) were 6.88 and 7.15, respectively.
On the same counts, the results for `CCOC(=O)Cc1csc(NC(=O)c2n[nH]c3c2C(C)(C)Cc2cnc(N)nc2-3)n1` [compound 33] are 6.37 and less than 5.00.
The matching figures for `CC1(C)Cc2cnc(N)nc2-c2[nH]nc(C(=O)Nc3ccc(C(=O)N4CCC(N5CCCCC5)CC4)cc3)c21` [compound 20]: 7.62 and 7.12.
As to `CN1CCC(NC(=O)c2cccc(NC(=O)c3n[nH]c4c3C(C)(C)Cc3cnc(N)nc3-4)c2)CC1` [compound 10], the results for the pIC50 on Δ49N-hChoKα (setting [1]) and at hChoKβ FL (setting [2]) were 6.76 and 6.09, respectively.
The matching figures for `CC1(C)Cc2cnc(N)nc2-c2[nH]nc(C(=O)Nc3cccc(C4OCCCO4)c3)c21` [compound 106]: 6.46 and 5.28.
Regarding `CC1(C)Cc2cnc(N)nc2-c2[nH]nc(C(=O)Nc3nc(COC4CCN(C5CCC6(CC5)CC6)CC4)cs3)c21` [compound 230], the values for the pIC50 at Δ49N-hChoKα (setting [1]) and on hChoKβ FL (setting [2]) were 7.62 and 6.23, respectively.
As for `CC1(C)Cc2cnc(N)nc2-c2[nH]nc(C(=O)N3CCN(c4ccccc4)CC3)c21` [compound 161], the pIC50 was 6.29 on Δ49N-hChoKα (setting [1]) and less than 5.00 at hChoKβ FL (setting [2]).
On to `CC1(C)Cc2cnc(N)nc2-c2[nH]nc(C(=O)Nc3nc(COC4CCN(Cc5ccccc5)CC4)cs3)c21` [compound 213], for which the pIC50 on Δ49N-hChoKα (setting [1]) was 7.80; on hChoKβ FL (setting [2]), 6.35.
The matching figures for `CN1CCC(NC(=O)c2csc(NC(=O)c3n[nH]c4c3C(C)(C)Cc3cnc(N)nc3-4)n2)CC1` [compound 69]: 7.44 and 7.06.
Regarding `Cn1nc(C(N)=O)c2c1-c1nc(N)ncc1CC2(C)C` [Ref. cpd 1, reference compound], on Δ49N-hChoKα (setting [1]), the pIC50 was less than 5.00.
The same measure, in the same setting: the result for `CNC(=O)c1nn(C)c2c1C(C)(C)Cc1cnc(N)nc1-2` [Ref. cpd 2, reference compound] reads less than 5.00.

A word on the pIC50: it is −log10 of the IC50, conventionally taken in molar units.
